# Laboratory results: ChEMBL document CHEMBL3885861, “Open TG-GATES”
# Organism: Rattus norvegicus
# Assay: Open TG-GATES - Regimen: Daily Repeat
# Assay type: toxicity, organism-based, Sprague-Dawley
# Parameters: regimen Daily Repeat, gender Male, age 6 weeks
# Conditions: in vivo, po, 0 mg/kg, route gavage, dose level Control; for APTT / Bas / Eos / Fbg / Hb / Ht / Lym / MCH / MCHC / MCV / Mono / Neu / PT / Plat / RBC / Ret / WBC: tissue Blood; for KIDNEY_L / KIDNEY_R / KIDNEY_TOTAL: tissue Kidney; for LIVER: tissue Liver; for A/G / ALP / ALT / AST / BUN / CRE / Ca / Cl / DBIL / GLC / IP / K / LDH / Na / PL / RALB / TBIL / TC / TG / TP / gamma-GTP: tissue Plasma
compound,measurement,setting,value
Brc1ccccc1 [BROMOBENZENE],TERMINAL_BW,"72 h, time 3 day",210.3 g
same,APTT,"72 h, time 3 day",15.5 s
same,Bas,"72 h, time 3 day",0%
same,Eos,"72 h, time 3 day",1%
same,Fbg,"72 h, time 3 day",264.4 mg/dL
same,Hb,"72 h, time 3 day",13.1 g/dL
same,Ht,"72 h, time 3 day",38.3%
same,Lym,"72 h, time 3 day",79.8%
same,MCH,"72 h, time 3 day",21.4 pg
same,MCHC,"72 h, time 3 day",34.3%
same,MCV,"72 h, time 3 day",62.4 fL
same,Mono,"72 h, time 3 day",3.2%
same,Neu,"72 h, time 3 day",15.6%
same,PT,"72 h, time 3 day",12 s
same,Plat,"72 h, time 3 day",116.4 x10_4/uL
same,RBC,"72 h, time 3 day",613.6 x10_4/ul
same,Ret,"72 h, time 3 day",7.8%
same,WBC,"72 h, time 3 day",89.2 x10_2/uL
same,KIDNEY_L,"72 h, time 3 day",0.9 g
same,KIDNEY_R,"72 h, time 3 day",0.8 g
same,KIDNEY_TOTAL,"72 h, time 3 day",1.7 g
same,LIVER,"72 h, time 3 day",10 g
same,A/G,"72 h, time 3 day",0.9
same,ALP,"72 h, time 3 day",1625.4 IU/L
same,ALT,"72 h, time 3 day",52.2 IU/L
same,AST,"72 h, time 3 day",77.8 IU/L
same,BUN,"72 h, time 3 day",14.8 mg/dL
same,CRE,"72 h, time 3 day",0.2 mg/dL
same,Ca,"72 h, time 3 day",10.2 mg/dL
same,Cl,"72 h, time 3 day",104.8 meq/L
same,DBIL,"72 h, time 3 day",0.012 mg/dL
same,GLC,"72 h, time 3 day",187 mg/dL
same,IP,"72 h, time 3 day",7.6 mg/dL
same,K,"72 h, time 3 day",4 meq/L
same,LDH,"72 h, time 3 day",63.6 IU/L
same,Na,"72 h, time 3 day",141.8 meq/L
same,PL,"72 h, time 3 day",142.6 mg/dL
same,RALB,"72 h, time 3 day",2.6 g/dL
same,TBIL,"72 h, time 3 day",0.04 mg/dL
same,TC,"72 h, time 3 day",79 mg/dL
same,TG,"72 h, time 3 day",101 mg/dL
same,TP,"72 h, time 3 day",5.7 g/dL
same,gamma-GTP,"72 h, time 3 day",1.2 IU/L
same,TERMINAL_BW,"[…], time 7 day",242.1 g
same,TERMINAL_BW,"[…], time 14 day",295 g
same,TERMINAL_BW,"[…], time 28 day",384.4 g
same,APTT,"[…], time 7 day",15.7 s
same,Bas,"[…], time 7 day",0.2%
same,Eos,"[…], time 7 day",1%
same,Fbg,"[…], time 7 day",283.4 mg/dL
same,Hb,"[…], time 7 day",13.4 g/dL
same,Ht,"[…], time 7 day",39%
same,Lym,"[…], time 7 day",78.4%
same,MCH,"[…], time 7 day",21.4 pg
same,MCHC,"[…], time 7 day",34.5%
same,MCV,"[…], time 7 day",61.9 fL
same,Mono,"[…], time 7 day",2.8%
same,Neu,"[…], time 7 day",18%
same,PT,"[…], time 7 day",12.3 s
same,Plat,"[…], time 7 day",115.5 x10_4/uL
same,RBC,"[…], time 7 day",630.4 x10_4/ul
same,Ret,"[…], time 7 day",5.8%
same,WBC,"[…], time 7 day",112.8 x10_2/uL
same,APTT,"[…], time 14 day",15.8 s
same,Bas,"[…], time 14 day",0%
same,Eos,"[…], time 14 day",0.8%
same,Fbg,"[…], time 14 day",320.2 mg/dL
same,Hb,"[…], time 14 day",13.8 g/dL
same,Ht,"[…], time 14 day",39.9%
same,Lym,"[…], time 14 day",77%
same,MCH,"[…], time 14 day",20.8 pg
same,MCHC,"[…], time 14 day",34.7%
same,MCV,"[…], time 14 day",60 fL
same,Mono,"[…], time 14 day",2.4%
same,Neu,"[…], time 14 day",19%
same,PT,"[…], time 14 day",12 s
same,Plat,"[…], time 14 day",113.5 x10_4/uL
same,RBC,"[…], time 14 day",665.6 x10_4/ul
same,Ret,"[…], time 14 day",4.4%
same,WBC,"[…], time 14 day",89.1 x10_2/uL
same,APTT,"[…], time 28 day",17.6 s
same,Bas,"[…], time 28 day",0%
same,Eos,"[…], time 28 day",1.6%
same,Fbg,"[…], time 28 day",301 mg/dL
same,Hb,"[…], time 28 day",14.9 g/dL
same,Ht,"[…], time 28 day",42.4%
same,Lym,"[…], time 28 day",79.4%
same,MCH,"[…], time 28 day",19.4 pg
same,MCHC,"[…], time 28 day",35.1%
same,MCV,"[…], time 28 day",55.4 fL
same,Mono,"[…], time 28 day",2.6%
same,Neu,"[…], time 28 day",15.4%
same,PT,"[…], time 28 day",12.5 s
same,Plat,"[…], time 28 day",103.9 x10_4/uL
same,RBC,"[…], time 28 day",765 x10_4/ul
same,Ret,"[…], time 28 day",2.4%
same,WBC,"[…], time 28 day",110.4 x10_2/uL
same,KIDNEY_L,"[…], time 7 day",1 g
same,KIDNEY_R,"[…], time 7 day",1 g
same,KIDNEY_TOTAL,"[…], time 7 day",2 g
same,KIDNEY_L,"[…], time 14 day",1.2 g
same,KIDNEY_R,"[…], time 14 day",1.1 g
same,KIDNEY_TOTAL,"[…], time 14 day",2.3 g
same,KIDNEY_L,"[…], time 28 day",1.3 g
same,KIDNEY_R,"[…], time 28 day",1.3 g
same,KIDNEY_TOTAL,"[…], time 28 day",2.6 g
same,LIVER,"[…], time 7 day",11 g
same,LIVER,"[…], time 14 day",12.9 g
same,LIVER,"[…], time 28 day",16.6 g
same,A/G,"[…], time 7 day",0.8
same,ALP,"[…], time 7 day",1737.2 IU/L
same,ALT,"[…], time 7 day",51 IU/L
same,AST,"[…], time 7 day",72.6 IU/L
same,BUN,"[…], time 7 day",14.8 mg/dL
same,CRE,"[…], time 7 day",0.2 mg/dL
same,Ca,"[…], time 7 day",11 mg/dL
same,Cl,"[…], time 7 day",107 meq/L
same,DBIL,"[…], time 7 day",0.012 mg/dL
same,GLC,"[…], time 7 day",191.2 mg/dL
same,IP,"[…], time 7 day",7 mg/dL
same,K,"[…], time 7 day",3.9 meq/L
same,LDH,"[…], time 7 day",97 IU/L
same,Na,"[…], time 7 day",143.8 meq/L
same,PL,"[…], time 7 day",145.8 mg/dL
same,RALB,"[…], time 7 day",2.7 g/dL
same,TBIL,"[…], time 7 day",0.044 mg/dL
same,TC,"[…], time 7 day",75.4 mg/dL
same,TG,"[…], time 7 day",90.2 mg/dL
same,TP,"[…], time 7 day",5.9 g/dL
same,gamma-GTP,"[…], time 7 day",1 IU/L
same,A/G,"[…], time 14 day",0.8
same,ALP,"[…], time 14 day",1619.6 IU/L
same,ALT,"[…], time 14 day",39.2 IU/L
same,AST,"[…], time 14 day",67.8 IU/L
same,BUN,"[…], time 14 day",15.8 mg/dL
same,CRE,"[…], time 14 day",0.2 mg/dL
same,Ca,"[…], time 14 day",10.8 mg/dL
same,Cl,"[…], time 14 day",106.6 meq/L
same,DBIL,"[…], time 14 day",0 mg/dL
same,GLC,"[…], time 14 day",191.6 mg/dL
same,IP,"[…], time 14 day",6.8 mg/dL
same,K,"[…], time 14 day",3.9 meq/L
same,LDH,"[…], time 14 day",64.2 IU/L
same,Na,"[…], time 14 day",143.2 meq/L
same,PL,"[…], time 14 day",153 mg/dL
same,RALB,"[…], time 14 day",2.7 g/dL
same,TBIL,"[…], time 14 day",0.032 mg/dL
same,TC,"[…], time 14 day",75.6 mg/dL
same,TG,"[…], time 14 day",95 mg/dL
same,TP,"[…], time 14 day",5.9 g/dL
same,gamma-GTP,"[…], time 14 day",1 IU/L
same,A/G,"[…], time 28 day",0.8
same,ALP,"[…], time 28 day",1341.6 IU/L
same,ALT,"[…], time 28 day",45.8 IU/L
same,AST,"[…], time 28 day",64 IU/L
same,BUN,"[…], time 28 day",16 mg/dL
same,CRE,"[…], time 28 day",0.2 mg/dL
same,Ca,"[…], time 28 day",10.7 mg/dL
same,Cl,"[…], time 28 day",104 meq/L
same,DBIL,"[…], time 28 day",0.018 mg/dL
same,GLC,"[…], time 28 day",186.6 mg/dL
same,IP,"[…], time 28 day",6 mg/dL
same,K,"[…], time 28 day",3.8 meq/L
same,LDH,"[…], time 28 day",71.4 IU/L
same,Na,"[…], time 28 day",142.2 meq/L
same,PL,"[…], time 28 day",157.8 mg/dL
same,RALB,"[…], time 28 day",2.9 g/dL
same,TBIL,"[…], time 28 day",0.036 mg/dL
same,TC,"[…], time 28 day",80.2 mg/dL
same,TG,"[…], time 28 day",158.4 mg/dL
same,TP,"[…], time 28 day",6.5 g/dL
same,gamma-GTP,"[…], time 28 day",1 IU/L
